Measured values from PubChem BioAssay AID553 (University of Pittsburgh Molecular Library Screening Center, 2006).
Active and inactive are the calls of the source. How the calls were made is not given here.

Target: Dual specificity protein phosphatase 6 (Rattus norvegicus) (UniProt Q64346)
Assay: rat DUSP6 enzyme activity inhibition – biochemical, in vitro, hit/probe assessment, dose response (AID 553)
Details: recombinant MKP-3 phosphatase, fluorescence intensity

Chain of Dual specificity protein phosphatase 6 (Rattus norvegicus) (Q64346 whole entry, looked up): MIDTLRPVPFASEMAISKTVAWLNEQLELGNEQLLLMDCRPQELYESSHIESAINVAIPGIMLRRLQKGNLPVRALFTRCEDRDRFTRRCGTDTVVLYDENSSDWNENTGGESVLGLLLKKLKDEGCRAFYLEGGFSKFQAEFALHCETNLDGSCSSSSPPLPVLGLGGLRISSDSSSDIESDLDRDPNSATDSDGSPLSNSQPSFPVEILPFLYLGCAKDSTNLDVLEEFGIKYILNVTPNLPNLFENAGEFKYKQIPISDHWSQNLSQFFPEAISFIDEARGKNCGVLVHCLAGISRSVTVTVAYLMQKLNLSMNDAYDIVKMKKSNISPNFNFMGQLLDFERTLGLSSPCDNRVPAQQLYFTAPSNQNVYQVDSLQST

Row | SMILES | IC50
1 | O=C1c2cccnc2C(Nc2ccc(S(=O)(=O)N3CCCCCC3)cc2)N1Cc1ccccc1 (configuration not stated) | > 50 µM (inactive)
2 | N#C/C(=C(/O)CSc1nnc(Cc2cccs2)n1C1CCCCC1)c1nc2ccccc2[nH]1 | > 50 µM (inactive)
3 | O=C1C(C2=C(O)c3ccccc3C2=O)=Nc2ccccc21 | 18.3 µM
4 | Oc1ccc2ccccc2c1C=NC12CN3CCN(CN(C3)C1)C2 | > 50 µM (inactive)

The remaining lines, values ahead:

Row | IC50 | SMILES
5 | > 50 µM (inactive) | CCOC(=O)c1ccc(NC2c3ncccc3C(=O)N2Cc2ccc(F)cc2)cc1 (configuration not stated)
6 | > 50 µM (inactive) | CCSCCOC(=O)C1=C(C)NC2=C(C(=O)CCC2)C1c1coc2ccccc2c1=O (configuration not stated)
7 | > 50 µM (inactive) | COC(=O)C1=C(C)NC2=C(C(=O)c3ccccc32)C1c1ccc(-c2ccc(C(=O)O)cc2)o1 (configuration not stated)
